The values that follow come from publication PMC5218480 (PLoS ONE, 2017).

This test concerns MV-4-11 cells. Briefly: Gene expression microarray analysis (Affymetrix PrimeView) and GSEA. It counts as cell-based, human. On the set-up: RFU PODN (11730768_x_at) / Fold change /veh PODN (11730768_x_at) / RFU LINC00158 (11744669_a_at) / Fold change /veh LINC00158 (11744669_a_at) / RFU DUSP10 (11751237_a_at) / Fold change /veh DUSP10 (11751237_a_at) / RFU ID3 (11757404_x_at) / Fold change /veh ID3 (11757404_x_at) / RFU PLEKHG5 (11737974_s_at) / Fold change /veh PLEKHG5 (11737974_s_at) / RFU LRRC4B (11730491_at) / Fold change /veh LRRC4B (11730491_at) / RFU GIMAP4 (11747438_a_at) / Fold change /veh GIMAP4 (11747438_a_at) / RFU KRT8 (11758183_x_at) / Fold change /veh KRT8 (11758183_x_at) / RFU CNN1 (11734310_a_at) / Fold change /veh CNN1 (11734310_a_at) / RFU VPS37D (11726825_at) / Fold change /veh VPS37D (11726825_at) / RFU C10orf10 (11716522_x_at) / Fold change /veh C10orf10 (11716522_x_at) / RFU KIR2DL2 /// KIR2DL4 /// KIR2DL5A /// KIR2DL5B /// KIR2DS1 /// KIR2DS2 /// KIR2DS3 /// KIR2DS4 /// KIR3DL3 /// KIR3DL3 /// KIR3DS1 (11738374_at) / Fold change /veh KIR2DL2 /// KIR2DL4 /// KIR2DL5A /// KIR2DL5B /// KIR2DS1 /// KIR2DS2 /// KIR2DS3 /// KIR2DS4 /// KIR3DL3 /// KIR3DL3 /// KIR3DS1 (11738374_at) / RFU C1QL1 (11718748_at) / Fold change /veh C1QL1 (11718748_at) / RFU TMPRSS4 (11747572_a_at) / Fold change /veh TMPRSS4 (11747572_a_at) / RFU HAMP (11756126_x_at) / Fold change /veh HAMP (11756126_x_at) / RFU RNFT2 (11725882_a_at) / Fold change /veh RNFT2 (11725882_a_at) / RFU NR4A2 (11747474_a_at) / Fold change /veh NR4A2 (11747474_a_at) / RFU ABCC12 (11746883_a_at) / Fold change /veh ABCC12 (11746883_a_at) / RFU TMEM136 (11760407_x_at) / Fold change /veh TMEM136 (11760407_x_at) / RFU CLDN22 /// WWC2 (11732394_at) / Fold change /veh CLDN22 /// WWC2 (11732394_at) / RFU HLA-DPB1 (11760878_x_at) / Fold change /veh HLA-DPB1 (11760878_x_at) / RFU SPINT1 (11716480_a_at) / Fold change /veh SPINT1 (11716480_a_at) / RFU GAP43 (11754022_s_at) / Fold change /veh GAP43 (11754022_s_at) / RFU A4GNT (11735810_at) / Fold change /veh A4GNT (11735810_at) / RFU PRB3 (11715151_x_at) / Fold change /veh PRB3 (11715151_x_at) / RFU TUBB4B (11761932_at) / Fold change /veh TUBB4B (11761932_at) / RFU CAPN14 (11732068_a_at) / Fold change /veh CAPN14 (11732068_a_at) / RFU TMCC2 (11721928_a_at) / Fold change /veh TMCC2 (11721928_a_at) / RFU IRGQ (11745062_a_at) / Fold change /veh IRGQ (11745062_a_at) / RFU FAM174B (11720279_a_at) / Fold change /veh FAM174B (11720279_a_at) / RFU TMPRSS4 (11748680_a_at) / Fold change /veh TMPRSS4 (11748680_a_at) / RFU FAM212B (11763350_a_at) / Fold change /veh FAM212B (11763350_a_at) / RFU PLEKHG5 (11743358_a_at) / Fold change /veh PLEKHG5 (11743358_a_at) / RFU ZSCAN30 (11745921_a_at) / Fold change /veh ZSCAN30 (11745921_a_at) / RFU CMKLR1 (11741424_a_at) / Fold change /veh CMKLR1 (11741424_a_at) / RFU LOC101060620 /// MAPK8IP1 (11723275_at) / Fold change /veh LOC101060620 /// MAPK8IP1 (11723275_at) / RFU SPTSSB (11747773_x_at) / Fold change /veh SPTSSB (11747773_x_at) / RFU PRSS12 (11739890_at) / Fold change /veh PRSS12 (11739890_at) / RFU BIN1 (11741810_x_at) / Fold change /veh BIN1 (11741810_x_at) / RFU WNT11 (11732464_a_at) / Fold change /veh WNT11 (11732464_a_at) / RFU C10orf10 (11716521_a_at) / Fold change /veh C10orf10 (11716521_a_at) / RFU C5orf56 (11738089_at) / Fold change /veh C5orf56 (11738089_at) / RFU CYB561 (11721691_x_at) / Fold change /veh CYB561 (11721691_x_at) / RFU ANKRD19P (11752326_a_at) / Fold change /veh ANKRD19P (11752326_a_at) / RFU OR2T12 /// OR2T33 /// OR2T8 (11738714_s_at) / Fold change /veh OR2T12 /// OR2T33 /// OR2T8 (11738714_s_at) / RFU VCAN (11748164_a_at) / Fold change /veh VCAN (11748164_a_at) / RFU JSRP1 (11732532_at) / Fold change /veh JSRP1 (11732532_at) / RFU KRTAP10-11 (11738290_x_at) / Fold change /veh KRTAP10-11 (11738290_x_at) / RFU MYO3A (11730013_a_at) / Fold change /veh MYO3A (11730013_a_at) / RFU EBF3 (11725865_a_at) / Fold change /veh EBF3 (11725865_a_at) / RFU CAMK2N1 (11719241_x_at) / Fold change /veh CAMK2N1 (11719241_x_at) / RFU C5orf56 (11738088_a_at) / Fold change /veh C5orf56 (11738088_a_at) / RFU OLFML3 (11715873_a_at) / Fold change /veh OLFML3 (11715873_a_at) / RFU LOC100653217 /// NTM (11731650_a_at) / Fold change /veh LOC100653217 /// NTM (11731650_a_at) / RFU MAPK11 (11762145_a_at) / Fold change /veh MAPK11 (11762145_a_at) / RFU FIZ1 (11724087_x_at) / Fold change /veh FIZ1 (11724087_x_at) / RFU OASL (11726364_x_at) / Fold change /veh OASL (11726364_x_at) / RFU SOX15 (11748057_x_at) / Fold change /veh SOX15 (11748057_x_at) / RFU CD79A (11719716_a_at) / Fold change /veh CD79A (11719716_a_at) / RFU HIST1H1D (11736915_at) / Fold change /veh HIST1H1D (11736915_at) / RFU CASKIN2 (11723855_a_at) / Fold change /veh CASKIN2 (11723855_a_at) / RFU LOC730098 (11760151_x_at) / Fold change /veh LOC730098 (11760151_x_at) / RFU OR4N2 (11742367_at) / Fold change /veh OR4N2 (11742367_at) / RFU PRRT2 (11749266_a_at) / Fold change /veh PRRT2 (11749266_a_at) / RFU SNX32 (11753110_a_at) / Fold change /veh SNX32 (11753110_a_at) / RFU CDHR5 (11726645_a_at) / Fold change /veh CDHR5 (11726645_a_at) / RFU RCAN1 (11760418_a_at) / Fold change /veh RCAN1 (11760418_a_at) / RFU FAM167A (11723789_a_at) / Fold change /veh FAM167A (11723789_a_at) / RFU FAM26E (11764081_at) / Fold change /veh FAM26E (11764081_at) / RFU ISYNA1 (11749810_s_at) / Fold change /veh ISYNA1 (11749810_s_at) / RFU ACY1 (11761880_at) / Fold change /veh ACY1 (11761880_at) / RFU 11764098_at / Fold change /veh 11764098_at / RFU SAMD14 (11745864_x_at) / Fold change /veh SAMD14 (11745864_x_at) / RFU NPB (11741838_a_at) / Fold change /veh NPB (11741838_a_at) / RFU TMPRSS6 (11731388_a_at) / Fold change /veh TMPRSS6 (11731388_a_at) / RFU KRTAP10-2 (11738614_at) / Fold change /veh KRTAP10-2 (11738614_at) / RFU ARHGAP8 /// PRR5-ARHGAP8 (11727945_x_at) / Fold change /veh ARHGAP8 /// PRR5-ARHGAP8 (11727945_x_at) / RFU KRTAP5-7 /// NADSYN1 (11734609_at) / Fold change /veh KRTAP5-7 /// NADSYN1 (11734609_at) / RFU RASL12 (11751679_a_at) / Fold change /veh RASL12 (11751679_a_at) / RFU CDKN2B (11736163_a_at) / Fold change /veh CDKN2B (11736163_a_at) / RFU PRF1 (11729649_at) / Fold change /veh PRF1 (11729649_at) / RFU, ZNF638 /// ZNF638-IT1 / Fold change vs veh, ZNF638 /// ZNF638-IT1 / RFU, PANK3 / Fold change vs veh, PANK3 / RFU, SH3YL1 / Fold change vs veh, SH3YL1 / RFU, ZEB2 / Fold change vs veh, ZEB2 / RFU, NRIP1 / Fold change vs veh, NRIP1 / RFU, PTTG1IP / Fold change vs veh, PTTG1IP / RFU, CAPN2 / Fold change vs veh, CAPN2 / RFU, MED14 / Fold change vs veh, MED14 / RFU, SNORA58 / Fold change vs veh, SNORA58 / RFU, C1orf63 / Fold change vs veh, C1orf63 / RFU, LRRFIP1 / Fold change vs veh, LRRFIP1 / RFU, NDUFAF7 / Fold change vs veh, NDUFAF7 / RFU, SLC12A2 / Fold change vs veh, SLC12A2 / RFU, IBTK / Fold change vs veh, IBTK / RFU, ESF1 / Fold change vs veh, ESF1 / Fold change vs veh, TMEM50B / RFU, TAOK1 / Fold change vs veh, TAOK1 / RFU, ACBD3 / Fold change vs veh, ACBD3 / RFU, TMA16 / Fold change vs veh, TMA16 / RFU, RWDD3 / Fold change vs veh, RWDD3 / RFU, BCAT1 / Fold change vs veh, BCAT1 / RFU, EDEM3 / Fold change vs veh, EDEM3 / RFU, TMEM33 / Fold change vs veh, TMEM33 / RFU, WDR75 / Fold change vs veh, WDR75 / RFU, AHCTF1 / Fold change vs veh, AHCTF1 / RFU, TFRC / Fold change vs veh, TFRC / RFU, ZDHHC17 / Fold change vs veh, ZDHHC17 / RFU, NOM1 / Fold change vs veh, NOM1 / RFU, ARL8B / Fold change vs veh, ARL8B / RFU, ZBTB11 / Fold change vs veh, ZBTB11 / RFU, TAMM41 / Fold change vs veh, TAMM41 / RFU, KIAA1704 /// LOC100996395 / Fold change vs veh, KIAA1704 /// LOC100996395 / RFU, ING1 / Fold change vs veh, ING1 / RFU, TRMT61B / Fold change vs veh, TRMT61B / RFU, FUBP3 / Fold change vs veh, FUBP3 / RFU, TP53 / Fold change vs veh, TP53 / RFU, TNKS2 / Fold change vs veh, TNKS2 / RFU, ZFP14 / Fold change vs veh, ZFP14 / RFU, ACTR2 / Fold change vs veh, ACTR2 / RFU, PPP3R1 / Fold change vs veh, PPP3R1 / RFU, PIK3R1 / Fold change vs veh, PIK3R1 / RFU, HNRNPA1 / Fold change vs veh, HNRNPA1 / RFU, RNF170 / Fold change vs veh, RNF170 / RFU, ZNF28 / Fold change vs veh, ZNF28 / RFU, RNGTT / Fold change vs veh, RNGTT / RFU, OGT / Fold change vs veh, OGT / RFU, BRD1 / Fold change vs veh, BRD1 / RFU, MARS / Fold change vs veh, MARS / RFU, ZNF655 / Fold change vs veh, ZNF655 / RFU, FAHD1 / Fold change vs veh, FAHD1 / RFU, BDP1 / Fold change vs veh, BDP1 / RFU, LRRCC1 / Fold change vs veh, LRRCC1 / RFU, ARID1A / Fold change vs veh, ARID1A / RFU, ZNF146 / Fold change vs veh, ZNF146 / RFU, ZNF330 / Fold change vs veh, ZNF330 / RFU, GPN3 / Fold change vs veh, GPN3 / RFU, C9orf123 / Fold change vs veh, C9orf123 / RFU, N4BP2L2 / Fold change vs veh, N4BP2L2 / RFU, ARFIP1 / Fold change vs veh, ARFIP1 / RFU, FAM179B / Fold change vs veh, FAM179B / RFU, BCL10 / Fold change vs veh, BCL10 / RFU, UHRF1BP1L / Fold change vs veh, UHRF1BP1L / RFU, BET1 / Fold change vs veh, BET1 / RFU, CNOT2 / Fold change vs veh, CNOT2 / RFU, ZNF268 / Fold change vs veh, ZNF268 / Fold change vs veh, ZNF507 / RFU, DGCR2 / Fold change vs veh, DGCR2 / RFU, WDSUB1 / Fold change vs veh, WDSUB1 / Fold change vs veh, HSP90B1 /// MIR3652 / RFU, ADSS / Fold change vs veh, ADSS / RFU, GK / Fold change vs veh, GK / RFU, ZNF148 / Fold change vs veh, ZNF148 / RFU, TAF9 / Fold change vs veh, TAF9 / RFU, SLC1A5 / Fold change vs veh, SLC1A5 / RFU, SLMO2 / Fold change vs veh, SLMO2 / RFU, ABCC4 / Fold change vs veh, ABCC4 / RFU, LOC101060439 /// RAP1B / Fold change vs veh, LOC101060439 /// RAP1B / RFU, RFX7 / Fold change vs veh, RFX7 / RFU, GTPBP10 / Fold change vs veh, GTPBP10 / RFU, CNEP1R1 / Fold change vs veh, CNEP1R1 / RFU, BIVM-ERCC5 /// ERCC5 / Fold change vs veh, BIVM-ERCC5 /// ERCC5 / RFU, ILF3 / Fold change vs veh, ILF3 / RFU 11762660_at / Fold change /veh 11762660_at / RFU VCAN (11757783_s_at) / Fold change /veh VCAN (11757783_s_at) / RFU DDX43 (11728927_at) / Fold change /veh DDX43 (11728927_at) / RFU KRT8 (11758188_x_at) / Fold change /veh KRT8 (11758188_x_at) / RFU NKD1 (11759106_at) / Fold change /veh NKD1 (11759106_at) / RFU SRD5A1 (11742802_a_at) / Fold change /veh SRD5A1 (11742802_a_at) / RFU TPSAB1 /// TPSB2 (11721975_s_at) / Fold change /veh TPSAB1 /// TPSB2 (11721975_s_at) / RFU GSTM3 (11746129_a_at) / Fold change /veh GSTM3 (11746129_a_at) / RFU IL23R (11737362_x_at) / Fold change /veh IL23R (11737362_x_at) / RFU TMEM51 (11727254_a_at) / Fold change /veh TMEM51 (11727254_a_at) / RFU PIWIL2 (11732686_x_at) / Fold change /veh PIWIL2 (11732686_x_at) / RFU ORM1 (11744905_x_at) / Fold change /veh ORM1 (11744905_x_at) / RFU CCDC152 (11743942_at) / Fold change /veh CCDC152 (11743942_at) / RFU ECM1 (11717891_a_at) / Fold change /veh ECM1 (11717891_a_at) / RFU IL23R (11748794_a_at) / Fold change /veh IL23R (11748794_a_at) / RFU TNFAIP8L3 (11732012_x_at) / Fold change /veh TNFAIP8L3 (11732012_x_at) / RFU MBOAT4 (11741988_at) / Fold change /veh MBOAT4 (11741988_at) / RFU 11764193_at / Fold change /veh 11764193_at / RFU TMEM53 (11763286_at) / Fold change /veh TMEM53 (11763286_at) / RFU MAGEB2 (11727129_at) / Fold change /veh MAGEB2 (11727129_at) / RFU TMEM200A (11744735_a_at) / Fold change /veh TMEM200A (11744735_a_at) / RFU CCDC152 (11751479_a_at) / Fold change /veh CCDC152 (11751479_a_at) / RFU FAM211A (11726209_a_at) / Fold change /veh FAM211A (11726209_a_at) / RFU RGS16 (11746705_a_at) / Fold change /veh RGS16 (11746705_a_at) / RFU VCAN (11755009_s_at) / Fold change /veh VCAN (11755009_s_at) / RFU RHOB (11743442_s_at) / Fold change /veh RHOB (11743442_s_at) / RFU RGS16 (11720943_a_at) / Fold change /veh RGS16 (11720943_a_at) / RFU RGS16 (11720944_at) / Fold change /veh RGS16 (11720944_at) / RFU, VPS4B / Fold change vs veh, VPS4B / RFU, CREB1 / Fold change vs veh, CREB1 / RFU, DNAJC13 / Fold change vs veh, DNAJC13 / RFU, GNAQ / Fold change vs veh, GNAQ / RFU, CDK5R1 / Fold change vs veh, CDK5R1 / RFU, ZRANB3 / Fold change vs veh, ZRANB3 / RFU, CUL4A / Fold change vs veh, CUL4A / RFU, CCNY / Fold change vs veh, CCNY / RFU, UFL1 / Fold change vs veh, UFL1 / RFU, COG3 / Fold change vs veh, COG3 / RFU, DIAPH2 / Fold change vs veh, DIAPH2 / RFU, SKA2 / Fold change vs veh, SKA2 / RFU, AFF3 / Fold change vs veh, AFF3 / RFU, LMF1 / Fold change vs veh, LMF1 / RFU, IPO11 / Fold change vs veh, IPO11 / RFU, DFFB / Fold change vs veh, DFFB / RFU, FOXP1 / Fold change vs veh, FOXP1 / RFU, CARD8 / Fold change vs veh, CARD8 / RFU, STRN3 / Fold change vs veh, STRN3 / RFU, ADK / Fold change vs veh, ADK / RFU, RASSF2 / Fold change vs veh, RASSF2 / RFU, WIPF1 / Fold change vs veh, WIPF1 / RFU, LARP1B / Fold change vs veh, LARP1B / RFU, RASA1 / Fold change vs veh, RASA1 / RFU, RB1 / Fold change vs veh, RB1 / RFU, PPFIA1 / Fold change vs veh, PPFIA1 / RFU, MAT2A / Fold change vs veh, MAT2A / RFU, CCT5 / Fold change vs veh, CCT5 / RFU, WDR92 / Fold change vs veh, WDR92 / RFU, CUX1 / Fold change vs veh, CUX1 / RFU, TTC7A / Fold change vs veh, TTC7A / RFU, TMEM135 / Fold change vs veh, TMEM135 / RFU, DEPTOR / Fold change vs veh, DEPTOR / RFU, CPM / Fold change vs veh, CPM / RFU, DNAJB6 / Fold change vs veh, DNAJB6 / RFU, CACNA2D3 / Fold change vs veh, CACNA2D3 / RFU, DTX4 / Fold change vs veh, DTX4 / RFU, TFCP2 / Fold change vs veh, TFCP2 / RFU, GMCL1 /// GMCL1P1 / Fold change vs veh, GMCL1 /// GMCL1P1 / RFU, AEBP2 / Fold change vs veh, AEBP2 / RFU, SNHG1 /// SNORD22 /// SNORD25 /// SNORD26 /// SNORD27 /// SNORD28 /// SNORD29 /// SNORD31 / Fold change vs veh, SNHG1 /// SNORD22 /// SNORD25 /// SNORD26 /// SNORD27 /// SNORD28 /// SNORD29 /// SNORD31 / Fold change (Aza/veh), C12orf56 (ProbeSet 11735607_a_at) / Fold change (ACY-1035/veh), C12orf56 (ProbeSet 11735607_a_at) / Fold change (Aza/veh), FGFR1OP (ProbeSet 11751329_s_at) / Fold change (ACY-1035/veh), FGFR1OP (ProbeSet 11751329_s_at) / Fold change (Aza/veh), VPS36 (ProbeSet 11739960_a_at) / Fold change (ACY-1035/veh), VPS36 (ProbeSet 11739960_a_at) / RFU SYPL1 (11715823_x_at) / Fold change /veh SYPL1 (11715823_x_at) / RFU IGFBP7 (11715501_s_at) / Fold change /veh IGFBP7 (11715501_s_at) / RFU REEP3 (11722064_at) / Fold change /veh REEP3 (11722064_at) / RFU IGLL1 (11728026_x_at) / Fold change /veh IGLL1 (11728026_x_at): dose or concentration left out as unconfirmed. The following applies: ProbeSet 11743882_a_at; LIST D.

The structures appear in SMILES notation.

Regarding `Nc1ccc(-c2cccs2)cc1NC(=O)c1ccc2c(c1)cc(C1CC1)n2CCN1CCOCC1` [ACY-1035], the “RFU, STRN3” value is recorded as 114.91 RFU.
